Seven molecules from patent US11629171B2, “Beta-hairpin peptidomimetics” (POLYPHOR AG, priority 2017, dated 2023) can be followed below.

In brackets after ≈: the same amount, converted by molar mass. Where a SMILES comes first, the peptide text is derived from it. Bridges are numbered along the chain shown (N, C = ends). Roman numbers before positions name the chains, in order. [ ]: non-standard residue; d: D form. The star is where a group is joined. Tle = CC(C)(C)[C@H](N)C(=O)O; Hiv = CC(C)[C@H](O)C(=O)O; dDab = NCC[C@@H](N)C(=O)O; hSer = N[C@@H](CCO)C(=O)O; NHCH(CH2OH)2 = OCC(CO)N*; Orn = NCCC[C@H](N)C(=O)O; Dab = NCC[C@H](N)C(=O)O; Dap = NC[C@H](N)C(=O)O

Format in all cases: cell-based
In data set [1] the test system is Klebsiella pneumoniae 968733. To be noted: 968733. Put shortly:
(§1)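 Broth microdilution per CLSI; MH-II (cation-adjusted) + 0.002% P-80 final; ~10^6 CFU/mL inoculum; 2-fold peptide series; 35° C, 18-20 h; MIC = no visible growth, μg/mL.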

The subject of the next data set is Escherichia coli 926415. To be noted: 926415. Put shortly:
as §1

Data set [2] concerns Acinetobacter baumannii DSM 30008. The following applies: DSM 30008. Put shortly:
as §1

For data set [3], the system named is Pseudomonas aeruginosa ATCC 27853. The following applies: ATCC 27853. A digest of the protocol: as §1
In data set [4] the test system is Enterobacter cloacae 848840. To be noted: 848840. Put shortly: as §1
The test system of data set [5] is Escherichia coli ATCC 25922. To be noted: ATCC 25922. Put shortly: as §1
Data set [6] has as its system Klebsiella pneumoniae SSI #3010. To be noted: SSI #3010. Put shortly:
as §1

For data set [7], the system named is Acinetobacter baumannii 872842. To be noted: 872842. A digest of the protocol: as §1
Data set [8] has as its system human red blood cells (hRBC). In words: Hemolysis. The following applies: red cells of human, 1 h, 200. Put shortly: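 Percent lysis of human red cells was derived from OD540 of the supernatant, referenced to 2% Triton X-100, after a 1 h, 37° C incubation of 20% (v/v) cells with 200 μg/mL peptide.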

As to `CC(=O)N[C@H](C(=O)N[C@H]1CSSC[C@@H](C(=O)N[C@@H](CO)C(N)=O)NC(=O)[C@H](C(C)C)NC(=O)[C@H](CCC(=O)O)NC(=O)[C@H](Cc2c[nH]c3ccccc23)NC(=O)[C@H](CCO)NC(=O)[C@@H](CCN)NC(=O)[C@H](CCC(=O)N[C@@H](CCN)C(=O)N[C@H](C(=O)N[C@@H](CN)C(=O)N[C@H]2CCNC(=O)[C@H]([C@@H](C)O)NC(=O)[C@H](CCN)NC(=O)[C@H](CCN)NC(=O)[C@H](CC(C)C)NC(=O)[C@@H](CC(C)C)NC(=O)[C@H](CCN)NC2=O)[C@@H](C)O)NC(=O)[C@H](CCN)NC(=O)[C@H](Cc2ccc(O)cc2)NC1=O)C(C)C` [Ex. 155] (I: Ac-VCY[Dab]E[dDab][hSer]WEVCS-NH2 / II: [Dab]T[Dap][Dab][Dab][dL]L[Dab][Dab]T; disulfide I:2-I:11; amide I:5-II:N; lactam II:4-II:C), the MIC in data set [1] is 0.5 µg/mL (≈ 0.204 µM); in the data set with Escherichia coli 926415, 0.5 µg/mL (≈ 0.204 µM); in data set [2], 0.0625 µg/mL (≈ 0.0255 µM); in data set [3], 0.125 µg/mL (≈ 0.0509 µM); in data set [4] it was 0.125 µg/mL (≈ 0.0509 µM); in [5] it was 0.0625 µg/mL (≈ 0.0255 µM). Further, the MIC in data set [6] and in data set [7] was 0.125 µg/mL (≈ 0.0509 µM) throughout. Also, in data set [8], the “Hemolysis at 200 μg/mL” value came to 1%.
As for `CC(=O)N[C@H](C(=O)N[C@H]1CSSC[C@@H](C(=O)N[C@@H](CO)C(N)=O)NC(=O)[C@H](C(C)(C)C)NC(=O)[C@H](CCC(=O)O)NC(=O)[C@H](Cc2c[nH]c3ccccc23)NC(=O)[C@H](CCO)NC(=O)[C@@H](CCN)NC(=O)[C@H](CCC(=O)N[C@@H](CCN)C(=O)N[C@H](C(=O)N[C@@H](CN)C(=O)N[C@H]2CCNC(=O)[C@H]([C@@H](C)O)NC(=O)[C@H](CCN)NC(=O)[C@H](CCN)NC(=O)[C@H](CC(C)C)NC(=O)[C@@H](CC(C)C)NC(=O)[C@H](CCN)NC2=O)[C@@H](C)O)NC(=O)[C@H](CCN)NC(=O)[C@H](Cc2ccc(O)cc2)NC1=O)C(C)C` [Ex. 156] (I: Ac-VCY[Dab]E[dDab][hSer]WE[Tle]CS-NH2 / II: [Dab]T[Dap][Dab][Dab][dL]L[Dab][Dab]T; disulfide I:2-I:11; amide I:5-II:N; lactam II:4-II:C), the MIC is 0.25 µg/mL (≈ 0.101 µM) in data set [1]; 0.125 µg/mL (≈ 0.0506 µM) against Escherichia coli 926415; 0.0625 µg/mL (≈ 0.0253 µM) in [2]; 0.125 µg/mL (≈ 0.0506 µM) in data set [3]; 0.125 µg/mL (≈ 0.0506 µM) in [4]; 0.03125 µg/mL (≈ 0.0127 µM) in data set [5]. Also, the MIC in data set [6] and in [7] was 0.125 µg/mL (≈ 0.0506 µM) each time. The “Hemolysis at 200 μg/mL” value in [8] is recorded as less than 1%.
As for `CC(C)C[C@@H]1NC(=O)[C@@H](CC(C)C)NC(=O)[C@H](CCN)NC(=O)[C@@H](NC(=O)[C@H](CN)NC(=O)[C@@H](NC(=O)[C@H](CCN)NC(=O)CC[C@@H]2NC(=O)[C@H](CCN)NC(=O)[C@H](Cc3ccc(O)cc3)NC(=O)[C@@H](NC(=O)[C@@H](O)C(C)C)CSSC[C@@H](C(=O)N[C@@H](CO)C(N)=O)NC(=O)[C@H](C(C)C)NC(=O)[C@H](CCC(=O)O)NC(=O)[C@H](Cc3c[nH]c4ccccc34)NC(=O)[C@H](CCO)NC(=O)[C@@H](CCN)NC2=O)[C@@H](C)O)CCNC(=O)[C@H]([C@@H](C)O)NC(=O)[C@H](CCN)NC(=O)[C@H](CCN)NC1=O` [Ex. 157] (I: H-[Hiv]CY[Dab]E[dDab][hSer]WEVCS-NH2 / II: [Dab]T[Dap][Dab][Dab][dL]L[Dab][Dab]T; disulfide I:2-I:11; amide I:5-II:N; lactam II:4-II:C), the MIC in data set [1] was 1 µg/mL (≈ 0.414 µM); against Escherichia coli 926415, 1 µg/mL (≈ 0.414 µM); in data set [2], 0.125 µg/mL (≈ 0.0518 µM); in [3] it was 0.25 µg/mL (≈ 0.104 µM); in [4], 0.25 µg/mL (≈ 0.104 µM); in data set [5], 0.0625 µg/mL (≈ 0.0259 µM). Besides, the results for the MIC in data set [6] and in [7] were 0.125 µg/mL (≈ 0.0518 µM) and 0.5 µg/mL (≈ 0.207 µM), respectively. In addition, in [8], the “Hemolysis at 200 μg/mL” value is recorded as less than 1%.
In the case of `CC(=O)N[C@H](C(=O)N[C@H]1CSSC[C@@H](C(=O)N[C@@H](CO)C(N)=O)NC(=O)[C@H](C(C)C)NC(=O)[C@H](CCC(=O)O)NC(=O)[C@H](Cc2c[nH]c3ccccc23)NC(=O)[C@H](CCO)NC(=O)[C@@H](CCN)NC(=O)[C@H](CCC(=O)N[C@@H](CCN)C(=O)N[C@H](C(=O)N[C@@H](CN)C(=O)N[C@H]2CCNC(=O)[C@H]([C@@H](C)O)NC(=O)[C@H](CCN)NC(=O)[C@H](CCN)NC(=O)[C@H](CC(C)C)NC(=O)[C@@H](CC(C)C)NC(=O)[C@H](CCN)NC2=O)[C@@H](C)O)NC(=O)[C@H](CCCCN)NC(=O)[C@H](Cc2ccc(O)cc2)NC1=O)C(C)C` [Ex. 158] (I: Ac-VCYKE[dDab][hSer]WEVCS-NH2 / II: [Dab]T[Dap][Dab][Dab][dL]L[Dab][Dab]T; disulfide I:2-I:11; amide I:5-II:N; lactam II:4-II:C), the MIC amounted to 1 µg/mL (≈ 0.403 µM) in data set [1]; 0.5 µg/mL (≈ 0.201 µM) against Escherichia coli 926415; 0.0625 µg/mL (≈ 0.0252 µM) in [2]; 0.25 µg/mL (≈ 0.101 µM) in data set [3]; 0.125 µg/mL (≈ 0.0503 µM) in data set [4]; 0.0625 µg/mL (≈ 0.0252 µM) in data set [5]. Further, the MIC in data set [6] was 0.125 µg/mL (≈ 0.0503 µM); in [7], 0.25 µg/mL (≈ 0.101 µM). For the same molecule, the “Hemolysis at 200 μg/mL” value in data set [8] is given as less than 1%.
As for `CC(=O)N[C@H](C(=O)N[C@H]1CSSC[C@@H](C(=O)N[C@@H](CO)C(N)=O)NC(=O)[C@H](C(C)(C)C)NC(=O)[C@H](CCC(=O)O)NC(=O)[C@H](Cc2c[nH]c3ccccc23)NC(=O)[C@H](CCO)NC(=O)[C@@H](CCN)NC(=O)[C@H](CCC(=O)N[C@@H](CCN)C(=O)N[C@H](C(=O)N[C@@H](CN)C(=O)N[C@H]2CCNC(=O)[C@H]([C@@H](C)O)NC(=O)[C@H](CCN)NC(=O)[C@H](CCN)NC(=O)[C@H](CC(C)C)NC(=O)[C@@H](CC(C)C)NC(=O)[C@H](CCN)NC2=O)[C@@H](C)O)NC(=O)[C@H](CCCCN)NC(=O)[C@H](Cc2ccc(O)cc2)NC1=O)C(C)C` [Ex. 159] (I: Ac-VCYKE[dDab][hSer]WE[Tle]CS-NH2 / II: [Dab]T[Dap][Dab][Dab][dL]L[Dab][Dab]T; disulfide I:2-I:11; amide I:5-II:N; lactam II:4-II:C), the MIC in data set [1] turned out to be 0.5 µg/mL (≈ 0.2 µM); with Escherichia coli 926415, 0.25 µg/mL (≈ 0.1 µM); in data set [2], 0.0625 µg/mL (≈ 0.025 µM); in [3], 0.125 µg/mL (≈ 0.0501 µM); in [4] it was 0.125 µg/mL (≈ 0.0501 µM); in data set [5], 0.0625 µg/mL (≈ 0.025 µM). Besides, the MIC in data set [6] turned out to be 0.125 µg/mL (≈ 0.0501 µM); in data set [7], 0.25 µg/mL (≈ 0.1 µM). Moreover, in [8], the “Hemolysis at 200 μg/mL” value is given as less than 1%.
As for `CC(C)C[C@@H]1NC(=O)[C@@H](CC(C)C)NC(=O)[C@H](CCN)NC(=O)[C@@H](NC(=O)[C@H](CN)NC(=O)[C@@H](NC(=O)[C@H](CCN)NC(=O)CC[C@@H]2NC(=O)[C@H](CCCN)NC(=O)[C@H](CCN)NC(=O)[C@H](Cc3ccc(O)cc3)NC(=O)[C@@H](NC(=O)[C@@H](O)C(C)C)CSSC[C@@H](C(=O)N[C@H](C(N)=O)[C@@H](C)O)NC(=O)[C@H](C(C)(C)C)NC(=O)[C@H](CO)NC(=O)[C@H](Cc3c[nH]c4ccccc34)NC(=O)[C@H]([C@@H](C)O)NC2=O)[C@@H](C)O)CCNC(=O)[C@H]([C@@H](C)O)NC(=O)[C@H](CCN)NC(=O)[C@H](CCN)NC1=O` [Ex. 160] (I: H-[Hiv]CY[Dab][Orn]ETWS[Tle]CT-NH2 / II: [Dab]T[Dap][Dab][Dab][dL]L[Dab][Dab]T; disulfide I:2-I:11; amide I:6-II:N; lactam II:4-II:C), the MIC in data set [1] was 0.5 µg/mL (≈ 0.207 µM); against Escherichia coli 926415, 0.5 µg/mL (≈ 0.207 µM); in data set [2] it was 0.125 µg/mL (≈ 0.0518 µM); in [3] it was 0.25 µg/mL (≈ 0.104 µM); in data set [4], 2 µg/mL (≈ 0.829 µM); in data set [5], 0.125 µg/mL (≈ 0.0518 µM). In addition, the results for the MIC in data set [6] and in data set [7] were 0.25 µg/mL (≈ 0.104 µM) and 0.5 µg/mL (≈ 0.207 µM), respectively. Also, the “Hemolysis at 200 μg/mL” value in data set [8] is recorded as less than 1%.
Consider `CC(C)C[C@@H]1NC(=O)[C@@H](CC(C)C)NC(=O)[C@H](CCN)NC(=O)[C@@H](NC(=O)[C@H](CN)NC(=O)[C@@H](NC(=O)[C@H](CCN)NC(=O)CC[C@H]2NC(=O)[C@H](CCCN)NC(=O)[C@H](CCN)NC(=O)[C@H](Cc3ccc(O)cc3)NC(=O)[C@@H](NC(=O)[C@@H](O)C(C)C)CSSC[C@@H](C(=O)NC(CO)CO)NC(=O)[C@H](C(C)(C)C)NC(=O)[C@H](CO)NC(=O)[C@H](Cc3c[nH]c4ccccc34)NC(=O)[C@H]([C@@H](C)O)NC2=O)[C@@H](C)O)CCNC(=O)[C@H]([C@@H](C)O)NC(=O)[C@H](CCN)NC(=O)[C@H](CCN)NC1=O` [Ex. 163] (I: H-[Hiv]CY[Dab][Orn][dE]TWS[Tle]C-{NHCH(CH2OH)2} / II: [Dab]T[Dap][Dab][Dab][dL]L[Dab][Dab]T; disulfide I:2-I:11; amide I:6-II:N; lactam II:4-II:C), for which the MIC in data set [1] is 0.5 µg/mL (≈ 0.209 µM); against Escherichia coli 926415, 0.5 µg/mL (≈ 0.209 µM); in data set [2], 0.125 µg/mL (≈ 0.0524 µM); in data set [3], 0.25 µg/mL (≈ 0.105 µM); in data set [4], 4 µg/mL (≈ 1.68 µM); in [5], 0.125 µg/mL (≈ 0.0524 µM). Also, the MIC in data set [6] and in data set [7] was 0.25 µg/mL (≈ 0.105 µM) in each case. The “Hemolysis at 200 μg/mL” value in [8] is 1%.
